Patent US12077503B2, “Substituted cyclic amides and their use as herbicides” (FMC CORPORATION, priority 2015, dated 2024)

Experiments:
Format in all cases: in vivo
[1] = system: pigweed (Amaranthus retroflexus); test: Test A preemergence; settings: for Plant response rating, Pigweed: 125 g ai/ha
Kochia (Kochia scoparia) [2] = test: Test A preemergence; settings: for Plant response rating, Kochia: 125 g ai/ha
Procedure, shortened: (§1)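 Ratings of 0 (no effect) to 100 (complete control) come from visual comparison with untreated controls roughly 10 d after treatment. Test chemicals, formulated in a non-phytotoxic solvent mixture with surfactant, were applied either as a preemergence directed soil spray on seeded soil or postemergence to one- to two-leaf plants 2 to 10 cm tall.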

[3] = system: ragweed (common ragweed, Ambrosia elatior); test: Test A preemergence; settings: for Plant response rating, Ragweed: 125 g ai/ha
Procedure, shortened: as §1

[4] = system: barnyardgrass (Echinochloa crus-galli); test: Test A preemergence; settings: for Plant response rating, Barnyardgrass: 125 g ai/ha
Procedure, shortened: as §1

[5] = system: ryegrass, Italian (Italian ryegrass, Lolium multiflorum); test: Test A preemergence; settings: for Plant response rating, Ryegrass, Italian: 125 g ai/ha
Procedure, shortened: as §1

[6] = system: giant foxtail (Setaria faberii); test: Test A preemergence; settings: for Plant response rating, Foxtail, Giant: 125 g ai/ha
Procedure, shortened: as §1

[7] = system: Galium (catchweed bedstraw, Galium aparine); test: Test A postemergence
Procedure, shortened: as §1

[8] = system: wheat (Triticum aestivum); test: Test A postemergence
Procedure, shortened: as §1

[9] = system: pigweed (Amaranthus retroflexus); test: Test A postemergence
Procedure, shortened: as §1

[10] = system: blackgrass (Alopecurus myosuroides); test: Test A postemergence
Procedure, shortened: as §1

Kochia (Kochia scoparia) [11] = test: Test A postemergence
Procedure, shortened: as §1

[12] = system: ragweed (common ragweed, Ambrosia elatior); test: Test A postemergence
Procedure, shortened: as §1

[13] = system: barnyardgrass (Echinochloa crus-galli); test: Test A postemergence
Procedure, shortened: as §1

[14] = system: ryegrass, Italian (Italian ryegrass, Lolium multiflorum); test: Test A postemergence
Procedure, shortened: as §1

[15] = system: giant foxtail (Setaria faberii); test: Test A postemergence
Procedure, shortened: as §1

corn (Zea mays) = test: Test A postemergence
Procedure, shortened: as §1

[16] = system: sedge, umbrella (small-flower umbrella sedge, Cyperus difformis); test: Test B flooded paddy test; settings: Flood, 250 g ai/ha; 0 to 100 scale where 0 is no effect and 100 is complete control; 13 to 15 d
Procedure, shortened: (§2)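 Visual ratings (0 none to 100 complete control) are relative to untreated plants, taken 13–15 d after treatment in a greenhouse. Test material went straight into floodwater standing 3 cm above the soil, kept constant, on plants at the 2-leaf stage.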

[17] = system: ducksalad (Heteranthera limosa); test: Test B flooded paddy test; settings: Flood, 250 g ai/ha; 0 to 100 scale where 0 is no effect and 100 is complete control; 13 to 15 d
Procedure, shortened: as §2

[18] = system: barnyardgrass (Echinochloa crus-galli); test: Test B flooded paddy test; settings: Flood, 250 g ai/ha; 0 to 100 scale where 0 is no effect and 100 is complete control; 13 to 15 d
Procedure, shortened: as §2

rice (Oryra sativa) = test: Test B flooded paddy test; settings: Flood, 250 g ai/ha; 0 to 100 scale where 0 is no effect and 100 is complete control; 13 to 15 d
Procedure, shortened: as §2

[19] = preemergence, 0 to 100 scale (0 no effect, 100 complete control)
[20] = Preemergence, 500 g ai/ha, 0 is no effect, 100 is complete control
[21] = 500 g ai/ha, postemergence, 0 to 100 scale, 0 no effect, 100 complete control
[22] = Postemergence, 125 g ai/ha, visual injury, 0 to 100 scale (0 no effect, 100 complete control), approx. 10 d
[23] = Preemergence, visual injury after approximately 10 d, 0 to 100 scale where 0 is no effect and 100 is complete control
[24] = Preemergence, 500 g ai/ha, visual injury approx. 10 d
[25] = 125 g ai/ha, postemergence, visual injury rating on 0 to 100 scale (0 no effect, 100 complete control), approx. 10 d
[26] = Postemergence, 500 g ai/ha, 0 to 100 scale where 0 is no effect and 100 is complete control

## O=C1NCC(c2ccccc2-c2ccccc2)C1C(=O)Nc1ccc(F)c(F)c1F (racemic) [Compound 382]
[1]; [19]
  Plant response rating, Pigweed: 0
[1]; [20]
  Pigweed plant response rating (0 to 100 scale): 0
Kochia (Kochia scoparia) [2]; [19]
  Plant response rating, Kochia: 0
Kochia (Kochia scoparia) [2]; [20]
  Kochia plant response rating (0 to 100 scale): 0
[3]; [19]
  Plant response rating, Ragweed: 0
[3]; [20]
  Ragweed plant response rating (0 to 100 scale): 0
[4]; [19]
  Plant response rating, Barnyardgrass: 0
[4]; [20]
  Barnyardgrass plant response rating (0 to 100 scale): 50
[5]; [19]
  Plant response rating, Ryegrass, Italian: 0
[5]; [20]
  Ryegrass, Italian plant response rating (0 to 100 scale): 0
[6]; [19]
  Plant response rating, Foxtail, Giant: 0
[6]; [20]
  Foxtail, Giant plant response rating (0 to 100 scale): 30
[7]; [21]
  Plant response rating, Galium: 0
[7]; [22]
  Plant response rating, Galium: 0
[8]; [21]
  Plant response rating, Wheat: 0
[8]; [22]
  Plant response rating, Wheat: 0
[9]; [21]
  Plant response rating, Pigweed: 0
[9]; [22]
  Plant response rating, Pigweed: 0
[10]; [21]
  Plant response rating, Blackgrass: 0
[10]; [22]
  Plant response rating, Blackgrass: 0
Kochia (Kochia scoparia) [11]; [21]
  Plant response rating, Kochia: 0
Kochia (Kochia scoparia) [11]; [22]
  Plant response rating, Kochia: 0
[12]; [21]
  Plant response rating, Ragweed: 0
[12]; [22]
  Plant response rating, Ragweed: 0
[13]; [21]
  Plant response rating, Barnyardgrass: 20
[13]; [22]
  Plant response rating, Barnyardgrass: 0
[14]; [21]
  Plant response rating, Ryegrass, Italian: 0
[14]; [22]
  Plant response rating, Ryegrass, Italian: 0
[15]; [21]
  Plant response rating, Foxtail, Giant: 20
[15]; [22]
  Plant response rating, Foxtail, Giant: 0
Corn (Zea mays); [21]
  Plant response rating, Corn: 0
Corn (Zea mays); [22]
  Plant response rating, Corn: 0
[16]
  Plant response rating, Sedge, Umbrella: 0
[17]
  Plant response rating, Ducksalad: 0
[18]
  Plant response rating, Barnyardgrass: 0
Rice (Oryra sativa)
  Plant response rating, Rice: 0

## O=C(Nc1ccccc1F)C1C(=O)N(CC=CCl)CC1c1cccc(C(F)(F)F)c1 (stereo not drawn) [Compound 483]
[1]; [23]
  Plant response rating, Pigweed: 0
[1]; [24]
  Pigweed plant response rating (0 to 100 scale, 0 is no effect, 100 is complete control): 0
Kochia (Kochia scoparia) [2]; [23]
  Plant response rating, Kochia: 0
Kochia (Kochia scoparia) [2]; [24]
  Kochia plant response rating (0 to 100 scale, 0 is no effect, 100 is complete control): 0
[3]; [23]
  Plant response rating, Ragweed: 0
[3]; [24]
  Ragweed plant response rating (0 to 100 scale, 0 is no effect, 100 is complete control): 0
[4]; [23]
  Plant response rating, Barnyardgrass: 0
[4]; [24]
  Barnyardgrass plant response rating (0 to 100 scale, 0 is no effect, 100 is complete control): 70
[5]; [23]
  Plant response rating, Ryegrass, Italian: 0
[5]; [24]
  Ryegrass, Italian plant response rating (0 to 100 scale, 0 is no effect, 100 is complete control): 30
[6]; [23]
  Plant response rating, Foxtail, Giant: 70
[6]; [24]
  Foxtail, Giant plant response rating (0 to 100 scale, 0 is no effect, 100 is complete control): 90
[7]; [25]
  Galium plant response rating: 0
[7]; [26]
  Plant response rating, Galium: 0
[8]; [25]
  Wheat plant response rating: 0
[8]; [26]
  Plant response rating, Wheat: 0
[9]; [25]
  Pigweed plant response rating: 0
[9]; [26]
  Plant response rating, Pigweed: 0
[10]; [25]
  Blackgrass plant response rating: 0
[10]; [26]
  Plant response rating, Blackgrass: 0
Kochia (Kochia scoparia) [11]; [25]
  Kochia plant response rating: 0
Kochia (Kochia scoparia) [11]; [26]
  Plant response rating, Kochia: 20
[12]; [25]
  Ragweed plant response rating: 0
[12]; [26]
  Plant response rating, Ragweed: 0
[13]; [25]
  Barnyardgrass plant response rating: 20
[13]; [26]
  Plant response rating, Barnyardgrass: 60
[14]; [25]
  Ryegrass, Italian plant response rating: 0
[14]; [26]
  Plant response rating, Ryegrass, Italian: 0
[15]; [25]
  Foxtail, Giant plant response rating: 20
[15]; [26]
  Plant response rating, Foxtail, Giant: 70
Corn (Zea mays); [25]
  Corn plant response rating: 0
Corn (Zea mays); [26]
  Plant response rating, Corn: 0
[16]
  Plant response rating, Sedge, Umbrella: 0
[17]
  Plant response rating, Ducksalad: 30
[18]
  Plant response rating, Barnyardgrass: 0
Rice (Oryra sativa)
  Plant response rating, Rice: 0
